In one experiment the target is T1, PTEN (Homo sapiens, UniProt P60484).
T1 construct: host or cells: COS-7
The experiment is described as follows: PTEN peptide binding assay in COS-7 cells. The conditions noted are these: biotinylated peptides 15 μM, 1 hour; ABC-DAB, 405 nm; compared to BioRP. On the procedure: COS-7 cells were cultured as previously reported (29). Forty-eight hrs after transfection, cells were incubated with purified biotinylated RP or PAPs 1-4 (15 μM) for 1 hour. Following 3 washes with PBS and fixation with 4% formaldehyde, COS-7 cells were incubated in ABC and the PAP binding signals were visualized with ABC-DAB based color reactions. The intensity of reaction color in multiple wells was read with a 96-well plate reader at 405 nm. The binding experiments were carried out in 6-12 replicates.

A further experiment relates to DRG neurons. The experiment is described as follows: Neurite outgrowth of adult DRG neurons on CNS myelin spots. It counts as cell-based, mice. The conditions noted are these: chosen from dose-response curve of neurite outgrowth assays of DRGs on CNS myelin. On the procedure:
(§1) Neurite outgrowth from neurons was performed in DRG and CGN cultures 1-5 days after growth. For DRG assay on myelin spots, the center of each culture coverslip was spotted with 2 μl of purified CNS myelin (200 μg/ml), which contains a number of axon growth inhibitors (11). DRGs were dissected out from C57BL/6 mice aged 8-10 weeks. After incubation with collagenase and 0.25% trypsin, dissociated DRG neurons were plated onto plastic coverslips in 24-well plates and grown in culture medium as previously reported (25, 48). Primary CGN cultures were prepared from cerebelli of postnatal 7-9 day C57BL/6 mice as reported previously (25, 29).
(§2) After plating, dissociated neurons were treated with vehicle, RP (10 μg/ml), PAP1 (2.5 μg/ml), PAP2 (10 μg/ml), PAP3 ([…]), PAP4 (6.7 μg/ml) and PAP5 (5 μg/ml). The doses of PAPs were chosen based on the dose-response curve obtained from neurite outgrowth assays of DRGs on CNS myelin. Neurons were fixed 5 days (DRGs) or 24 hrs (CGNs) after plating and stained for Tuj1. Images of each culture were captured with a Nikon image collecting system and neurite outgrowth was quantified with Photoshop and NIH image software (25). The total neurite length of DRGs per myelin spot was determined from 5-8 representative experiments. The neurite length of CGNs was measured as previously reported (25, 29). To determine the cellular distribution of PTEN, DRGs were stained with anti-PTEN and anti-Tuj1l antibodies in selected coverslips.

For experiment [1], the system named is mice with T7 dorsal over-hemisection. The experiment is described as follows: Growth of 5-HT and CST fiber tracts after T7 dorsal over-hemisection SCI. In kind it is in vivo. The conditions noted are these: s.c. 71 μg/mouse/day, 5 weeks after SCI; for density of 5-HT fibers in the spinal cord 5-7 mm caudal to the lesion: 14 days from 2 days after SCI, vs RP; for CST sprouts immediately rostral to the lesion (parasagittal sections) / density of ectopic CST sprouts lateral to the dorsal CST, 5-7 mm rostral to the lesion / growth of CST sprouts caudal to the lesion: 14 days. On the procedure:
(§3) Adult female C57BL/6 mice (9-10 weeks old) were deeply anesthetized with intramuscular ketamine (100 mg/kg) and intraperitoneal xylazine (15 mg/kg). A complete laminectomy was performed and the dorsal part of the spinal cord was fully exposed at T6 and T7 levels (31). A dorsal over-hemisection (1.0 mm) was performed at T7 with a 30 gauge needle and a pair of microscissors to completely sever dorsal part of the spinal cord as previously reported (29, 31). To study axon growth (FIG. 5-7), mice received daily subcutaneous injections of RP, PAP2 or PAP4 at 71 μg/mouse/day beginning two days after SCI for 14 successive days (29). Mice received BDA tracer injections into the motor cortex 3 weeks after SCI (31).
(§4) Mice were perfused 5 weeks after SCI and the spinal cord blocks around the lesion were processed for 5-HT and CST labeling. In brief, transverse sections (30 μm) 5-7 mm rostral to and caudal to the injury and parasagittal sections 4 mm rostral to and 4 mm caudal to lesion were processed for 5-HT-stained serotonergic fibers and BDA-labeled CST axons. To compare axon number among different groups, 5-HT axons were counted in the spinal cord 0-3.2 mm caudal to the lesion from all parasagittal sections in each animal. To determine functional recovery, locomotion recovery was evaluated during 5 weeks of survival by measuring the BMS two days and per week after SCI, and the grid walk performance and footprint 5 weeks after SCI. For axon quantification and behavioral analysis, 8, 9, and 9 mice were used in the RP, PAP2 and PAP4 groups, respectively.

The test system is the same in experiment [2]. The experiment is described as follows: Locomotor recovery after T7 dorsal over-hemisection SCI (BMS, grid walk, footprint). As to conditions: vs RP; for locomotor recovery, BMS scores: s.c. 71 μg/mouse/day, 14 days, 2-5 weeks after SCI. In kind it is in vivo. On the procedure: as §3, §4
A further experiment deals with CGNs. The experiment is described as follows: Neurite outgrowth of cerebellar granular neurons (CGNs) on CNS myelin. It counts as cell-based, mice. As to conditions: 24 hrs after plating; myelin 50 μg/ml; compared to vehicle. On the procedure:
as §1
as §2, with “To determine the cellular distribution of PTEN, DRGs were stained with anti-PTEN and anti-Tuj1l antibodies in selected coverslips.” left out

For the next experiment, the system named is SCI rats. As to conditions: cited from earlier work.

Like-named read-outs stand apart in the source and are kept apart here.

T1 sequence (P60484 whole entry, species assumed): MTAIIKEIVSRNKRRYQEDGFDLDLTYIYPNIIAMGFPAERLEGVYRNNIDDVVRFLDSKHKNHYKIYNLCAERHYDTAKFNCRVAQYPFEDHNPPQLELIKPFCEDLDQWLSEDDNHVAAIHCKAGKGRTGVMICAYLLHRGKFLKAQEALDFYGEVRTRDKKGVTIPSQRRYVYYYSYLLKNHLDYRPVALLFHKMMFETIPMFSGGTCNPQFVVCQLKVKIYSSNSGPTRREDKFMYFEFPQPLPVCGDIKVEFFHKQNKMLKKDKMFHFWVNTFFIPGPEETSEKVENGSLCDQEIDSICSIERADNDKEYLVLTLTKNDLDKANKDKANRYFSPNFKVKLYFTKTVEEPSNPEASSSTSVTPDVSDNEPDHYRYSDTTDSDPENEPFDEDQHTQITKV

In the case of IHCKAGKGRTGVMIC [PAP3], the “peptide binding to COS-7 cells transfected with PTEN” value (from here on “peptide binding”) in the experiment with PTEN is recorded as “higher binding affinity than PAP2”. In the experiment with DRG neurons, this substance gave an Optimal dose of 5 µg/mL.
Take KHKNHYKIYNLCAE [PAP2]: the Optimal dose with DRG neurons came out at 10 µg/mL. In experiment [1], the “density of 5-HT fibers in the spinal cord 5-7 mm caudal to the lesion” value was “significantly increased”; the “CST sprouts immediately rostral to the lesion (parasagittal sections)” value was “higher density”; the “density of ectopic CST sprouts lateral to the dorsal CST, 5-7 mm rostral to the lesion” value is “Increased density”; the “growth of CST sprouts caudal to the lesion” value is reported as “A small number of CST sprouts grew into the distal spinal cord”. Besides, the “locomotor recovery, BMS scores” value in experiment [2] is listed as “improve locomotor recovery”.
On to MTAIIKEIVSRNKRR [PAP1], for which the “peptide binding” value in the experiment with PTEN is listed as “higher binding affinity than PAP2”. This substance returned an Optimal dose in the experiment on DRG neurons of 2.5 µg/mL.
As for PENEPFDEDQHSQITKV [PAP5], the “neurite length of CGNs cultured on CNS myelin” value in the experiment with CGNs was “but not with PAP5, significantly increased”. The Optimal dose in the experiment with DRG neurons is 5 µg/mL.
Regarding TVEEPSNPEASSSTSVTPD [PAP4], in the experiment with PTEN, the “peptide binding” value is recorded as “higher binding affinity than PAP2”. For the same substance, the Optimal dose in the experiment on DRG neurons was 5 µg/mL. For the same substance, in experiment [1], the “density of 5-HT fibers in the spinal cord 5-7 mm caudal to the lesion” value was “significantly increased”; the “CST sprouts immediately rostral to the lesion (parasagittal sections)” value is given as “very high density”; the “density of ectopic CST sprouts lateral to the dorsal CST, 5-7 mm rostral to the lesion” value is “Increased density”; the “growth of CST sprouts caudal to the lesion” value was “terminated rostral to the lesion epicenter”. Also, the “stride length of the hindpaws” value in experiment [2] (footprints 5 weeks after injury) is “enhanced stride length”. In addition, in experiment [2], the “locomotor recovery, BMS scores” value was “improve locomotor recovery”.
For bisperoxovanadium [bpV], the functional recovery entry in the experiment on SCI rats (intrathecal) is “improved functional recovery”. For the same substance, in the experiment with SCI rats (systemic), the functional recovery entry is given as “improved functional recovery”; the “levels of phosphorylated Akt and S6 in the lesioned spinal cord” value was “elevated the levels of phosphorylated Akt and S6”.
